Measured values taken from article PMC9081329, “Pharmacokinetics, Mass Balance, Excretion, and Tissue Distribution of Plasmalogen Precursor PPI-1011” (Frontiers in Cell and Developmental Biology, 2022).

Test: Single dose tissue distribution study (QWBA, LSC of blood and plasma)
Format: in vivo, Sprague-Dawley rats
Procedure: Six male rats were administered a single oral dose of [^14C]PPI-1011 at 100 mg/kg (200 μCi/kg) and one rat was sacrificed at each of the following time points after the administration of the dose: 8, 12, 18, 24, 48, or 168 h. Terminal blood was collected by cardiac puncture directly into tubes with K2EDTA, an aliquot was stored at 4°C until LSC was performed for radioactivity, while the remaining blood was processed to plasma and stored at −20°C until LSC. Following blood collection, the carcasses were frozen in a cold bath with hexanes and dry ice for at least 8 min and then dried and stored at −70°C for at least 5 h. The carcasses were transferred to a −20°C freezer for at least 12 h before embedding.
QWBA was used to determine radioactivity concentrations in the caecum (contents and mucosa), large intestine (contents and mucosa), small intestine (contents and mucosa), stomach (contents and mucosa), brain, choroid plexus, spinal cord, bone, skin, adrenal gland, pineal body, pituitary gland, thyroid gland, liver, kidney (cortex, medulla and whole kidney), urinary bladder (contents and wall), brown fat, white fat, eye (lens, uveal tract and whole eye), epididymis, prostate gland, testis, ovary, uterus, lung, exorbital lachrymal gland, Harderian gland, pancreas, salivary gland, skeletal muscle, myocardium, cardiac blood, bone marrow, lymph node, spleen, and thymus. As well, LSC was used to determine the total radioactivity in the whole blood and plasma.
The whole-body cryosectioning technique described by ([Ullberg, 1977]) was the basis for embedding and cryosectioning the rats assigned to this study. Each frozen carcass was shaved, and then the limbs and tail were removed prior to embedding. Chilled (4°C) 3% CMC (low viscosity) was utilized to provide a firm support of reinforced ice around each rat and for a secure attachment to the microtome stage. Upon thorough freezing of the embedding medium surrounding each rat, the frozen CMC block was removed from the freezing bath and four 3/8 inch holes were drilled into the block. One cryosection quality control standard (CQCS) was prepared with a known amount of radioactivity and at least 1 ml aliquots were added to each of the four drilled holes. CQCS data were utilized to evaluate the overall performance of the QWBA assay.
Each frozen rat was sagittally trimmed (50–100 μm) at −20°C until exposure of a few target tissues employing a Leica Cryomacrocut heavy-duty microtome (Leica Microsystems Inc.,). Disposable stainless steel Feather type H45L knives (Feather Safety Razor Co., Ltd.) were utilized for trimming and sectioning each frozen rat. Several thinner sections (50 μm) were discarded prior to obtaining multiple 50 μm sections at various cryosectioning levels for QWBA analysis. Upon the collection of at least 60 target tissues in multiple cryosectioning levels, the cryosections were kept in the Cryomacrocut cryochamber for a minimum of 18 h for dehydration depending upon the number of cryosections within the cryochamber. After dehydration was complete, the cryosections were transferred to ambient temperature for processing. Mounted whole-body cryosections and a set of 15 standards were sandwiched between a standard phosphor screen and an exposure cassette. All cryosections were exposed to the phosphor screen for 4-days in a cabinet protected with lead prior to scanning using a Typhoon PhosphorImager (Cytiva). MCID™ Analysis software (InterFocus Ltd.) was utilized to generate a calibration curve of the STD nominal concentrations (nCi/g) versus PhosphorImager response (counts/μm^2 minus background) by weighted (1/x) linear regression analysis ([Potchoiba et al., 1995]; [Potchoiba et al., 1998]). The linear regression curve was then utilized to determine the concentration (nCi/g) of total radioactivity in whole-body tissues and blood. Radioactivity concentrations were expressed as μg Eq/g based on the specific activity of the compound in the final dose formulations. […]

[1] = 24 h post single oral 100 mg/kg
[2] = 48 h post single oral 100 mg/kg
[3] = 168 h post single oral 100 mg/kg

## CC/C=C\C/C=C\C/C=C\C/C=C\C/C=C\C/C=C\CCC(=O)O[C@H](CO[14CH2]CCCCCCCCCCCCCCC)COC(=O)CCCCC1CCSS1 (some centres unmarked) [[^14C]PPI-1011]
[1]
  Radioactivity concentration, Choroid Plexus: 9.85 μg equivalents/g
  Radioactivity concentration, Colliculus: 2.06 μg equivalents/g
  Radioactivity concentration, Diaphragm: 37.4 μg equivalents/g
  Radioactivity concentration, Epididymis: 40.4 μg equivalents/g
  Radioactivity concentration, Esophagus: 9.46 μg equivalents/g
  Radioactivity concentration, Exorbital Lacrimal Gland: 9.66 μg equivalents/g
  Radioactivity concentration, Gastric Mucosa: 48.7 μg equivalents/g
  Radioactivity concentration, Harderian Gland: 10.5 μg equivalents/g
  Radioactivity concentration, Intra-Orbital Lacrimal Gland: 7.56 μg equivalents/g
  Radioactivity concentration, Kidney: 24.7 μg equivalents/g
  Radioactivity concentration, Large Intestines: 180 μg equivalents/g
  Radioactivity concentration, Liver: 73.4 μg equivalents/g
  Radioactivity concentration, Lung: 30.2 μg equivalents/g
  Radioactivity concentration, Lymph Node: 17.4 μg equivalents/g
  Radioactivity concentration, Medulla Oblongata: 1.98 μg equivalents/g
  Radioactivity concentration, Muscle: 7.57 μg equivalents/g
  Radioactivity concentration, Myocardium: 31.0 μg equivalents/g
  Radioactivity concentration, Nasal Turbinates: 4.81 μg equivalents/g
  Radioactivity concentration, Ocular - Uveal Tract: 4.27 μg equivalents/g
  Radioactivity concentration, Ocular - Whole Eye: 1.14 μg equivalents/g
  Radioactivity concentration, Olfactory Bulb: 2.07 μg equivalents/g
  Radioactivity concentration, Pancreas: 24.8 μg equivalents/g
  Radioactivity concentration, Parotid Gland: 20.5 μg equivalents/g
  Radioactivity concentration, Pineal Gland: 10.8 μg equivalents/g
  Radioactivity concentration, Pituitary Gland: 16.7 μg equivalents/g
  Radioactivity concentration, Preputial Gland: 112 μg equivalents/g
  Radioactivity concentration, Prostate: 56.7 μg equivalents/g
  Radioactivity concentration, Renal Cortex: 26.8 μg equivalents/g
  Radioactivity concentration, Renal Medulla: 25.8 μg equivalents/g
  Radioactivity concentration, Salivary Gland: 21.3 μg equivalents/g
  Radioactivity concentration, Seminal Vesicles: 5.38 μg equivalents/g
  Radioactivity concentration, Skin - Non-Pigmented: 9.26 μg equivalents/g
  Radioactivity concentration, Small Intestines: 247 μg equivalents/g
  Radioactivity concentration, Spinal Cord: 1.75 μg equivalents/g
  Radioactivity concentration, Spleen: 46.3 μg equivalents/g
  Radioactivity concentration, Stomach: 10.8 μg equivalents/g
  Radioactivity concentration, Testis: 4.31 μg equivalents/g
  Radioactivity concentration, Thalamus: 1.71 μg equivalents/g
  Radioactivity concentration, Thymus: 9.79 μg equivalents/g
  Radioactivity concentration, Thyroid: 27.7 μg equivalents/g
  Radioactivity concentration, Whole Brain: 1.95 μg equivalents/g
[2]
  Radioactivity concentration, Adipose - Brown: 132 μg equivalents/g
  Radioactivity concentration, Adipose - Brown (Vessel Wall): 98.6 μg equivalents/g
  Radioactivity concentration, Adipose - Subcutaneous: 82.1 μg equivalents/g
  Radioactivity concentration, Adipose - Visceral: 111 μg equivalents/g
  Radioactivity concentration, Adrenal Gland: 201 μg equivalents/g
  Radioactivity concentration, Bladder Wall: 10.7 μg equivalents/g
  Radioactivity concentration, Blood - QWBA: 4.19 μg equivalents/g
  Radioactivity concentration, Bone Marrow: 15.7 μg equivalents/g
  Radioactivity concentration, Bone Surface: 0.508 μg equivalents/g
  Radioactivity concentration, Cecum: 34.3 μg equivalents/g
  Radioactivity concentration, Cerebellum: 2.60 μg equivalents/g
  Radioactivity concentration, Cerebrum: 2.23 μg equivalents/g
  Radioactivity concentration, Choroid Plexus: 14.4 μg equivalents/g
  Radioactivity concentration, Colliculus: 3.30 μg equivalents/g
  Radioactivity concentration, Diaphragm: 23.0 μg equivalents/g
  Radioactivity concentration, Epididymis: 6.81 μg equivalents/g
  Radioactivity concentration, Esophagus: 10.8 μg equivalents/g
  Radioactivity concentration, Exorbital Lacrimal Gland: 6.13 μg equivalents/g
  Radioactivity concentration, Gastric Mucosa: 37.5 μg equivalents/g
  Radioactivity concentration, Harderian Gland: 11.1 μg equivalents/g
  Radioactivity concentration, Intra-Orbital Lacrimal Gland: 6.64 μg equivalents/g
  Radioactivity concentration, Kidney: 24.6 μg equivalents/g
  Radioactivity concentration, Large Intestines: 19.1 μg equivalents/g
  Radioactivity concentration, Liver: 40.0 μg equivalents/g
  Radioactivity concentration, Lung: 22.9 μg equivalents/g
  Radioactivity concentration, Lymph Node: 20.0 μg equivalents/g
  Radioactivity concentration, Medulla Oblongata: 2.45 μg equivalents/g
  Radioactivity concentration, Muscle: 8.42 μg equivalents/g
  Radioactivity concentration, Myocardium: 26.6 μg equivalents/g
  Radioactivity concentration, Nasal Turbinates: 5.03 μg equivalents/g
  Radioactivity concentration, Ocular - Uveal Tract: 4.78 μg equivalents/g
  Radioactivity concentration, Ocular - Whole Eye: 1.30 μg equivalents/g
  Radioactivity concentration, Olfactory Bulb: 2.01 μg equivalents/g
  Radioactivity concentration, Pancreas: 28.0 μg equivalents/g
  Radioactivity concentration, Parotid Gland: 20.9 μg equivalents/g
  Radioactivity concentration, Pineal Gland: 16.4 μg equivalents/g
  Radioactivity concentration, Pituitary Gland: 19.2 μg equivalents/g
  Radioactivity concentration, Preputial Gland: 76.5 μg equivalents/g
  Radioactivity concentration, Prostate: 7.15 μg equivalents/g
  Radioactivity concentration, Renal Cortex: 24.3 μg equivalents/g
  Radioactivity concentration, Renal Medulla: 22.7 μg equivalents/g
  Radioactivity concentration, Salivary Gland: 22.9 μg equivalents/g
  Radioactivity concentration, Seminal Vesicles: 9.12 μg equivalents/g
  Radioactivity concentration, Skin - Non-Pigmented: 13.4 μg equivalents/g
  Radioactivity concentration, Small Intestines: 43.3 μg equivalents/g
  Radioactivity concentration, Spinal Cord: 2.56 μg equivalents/g
  Radioactivity concentration, Spleen: 33.1 μg equivalents/g
  Radioactivity concentration, Stomach: 8.01 μg equivalents/g
  Radioactivity concentration, Testis: 4.02 μg equivalents/g
  Radioactivity concentration, Thalamus: 1.91 μg equivalents/g
  Radioactivity concentration, Thymus: 9.58 μg equivalents/g
  Radioactivity concentration, Thyroid: 27.2 μg equivalents/g
  Radioactivity concentration, Whole Brain: 2.45 μg equivalents/g
[3]
  Radioactivity concentration, Adipose - Brown: 89.0 μg equivalents/g
  Radioactivity concentration, Adipose - Brown (Vessel Wall): 76.7 μg equivalents/g
  Radioactivity concentration, Adipose - Subcutaneous: 89.3 μg equivalents/g
  Radioactivity concentration, Adipose - Visceral: 90.7 μg equivalents/g
  Radioactivity concentration, Adrenal Gland: 142 μg equivalents/g
  Radioactivity concentration, Bladder Wall: < 0.485 μg equivalents/g
  Radioactivity concentration, Blood - QWBA: 2.56 μg equivalents/g
  Radioactivity concentration, Bone Marrow: 4.69 μg equivalents/g
  Radioactivity concentration, Cerebellum: 3.59 μg equivalents/g
  Radioactivity concentration, Cerebrum: 2.94 μg equivalents/g
  Radioactivity concentration, Choroid Plexus: 10.4 μg equivalents/g
  Radioactivity concentration, Colliculus: 3.97 μg equivalents/g
  Radioactivity concentration, Diaphragm: 11.7 μg equivalents/g
  Radioactivity concentration, Epididymis: 7.75 μg equivalents/g
  Radioactivity concentration, Esophagus: 5.34 μg equivalents/g
  Radioactivity concentration, Exorbital Lacrimal Gland: 7.36 μg equivalents/g
  Radioactivity concentration, Gastric Mucosa: 14.5 μg equivalents/g
  Radioactivity concentration, Harderian Gland: 3.67 μg equivalents/g
  Radioactivity concentration, Intra-Orbital Lacrimal Gland: 5.01 μg equivalents/g
  Radioactivity concentration, Kidney: 14.5 μg equivalents/g
  Radioactivity concentration, Large Intestines: 14.0 μg equivalents/g
  Radioactivity concentration, Liver: 7.50 μg equivalents/g
  Radioactivity concentration, Lung: 11.2 μg equivalents/g
  Radioactivity concentration, Lymph Node: 12.3 μg equivalents/g
  Radioactivity concentration, Medulla Oblongata: 3.13 μg equivalents/g
  Radioactivity concentration, Muscle: 7.01 μg equivalents/g
  Radioactivity concentration, Myocardium: 13.4 μg equivalents/g
  Radioactivity concentration, Nasal Turbinates: 4.29 μg equivalents/g
  Radioactivity concentration, Ocular - Uveal Tract: 6.48 μg equivalents/g
  Radioactivity concentration, Ocular - Whole Eye: 1.55 μg equivalents/g
  Radioactivity concentration, Olfactory Bulb: 2.25 μg equivalents/g
  Radioactivity concentration, Pancreas: 18.2 μg equivalents/g
  Radioactivity concentration, Parotid Gland: 12.3 μg equivalents/g
  Radioactivity concentration, Pineal Gland: 12.0 μg equivalents/g
  Radioactivity concentration, Pituitary Gland: 12.9 μg equivalents/g
  Radioactivity concentration, Preputial Gland: 69.0 μg equivalents/g
  Radioactivity concentration, Prostate: 4.44 μg equivalents/g
  Radioactivity concentration, Renal Cortex: 15.3 μg equivalents/g
  Radioactivity concentration, Renal Medulla: 11.8 μg equivalents/g
  Radioactivity concentration, Salivary Gland: 15.4 μg equivalents/g
  Radioactivity concentration, Seminal Vesicles: < 0.485 μg equivalents/g
  Radioactivity concentration, Skin - Non-Pigmented: 10.2 μg equivalents/g
  Radioactivity concentration, Small Intestines: 139 μg equivalents/g
  Radioactivity concentration, Spinal Cord: 3.33 μg equivalents/g
  Radioactivity concentration, Spleen: 9.36 μg equivalents/g
  Radioactivity concentration, Stomach: 4.97 μg equivalents/g
  Radioactivity concentration, Testis: 3.08 μg equivalents/g
  Radioactivity concentration, Thalamus: 2.78 μg equivalents/g
  Radioactivity concentration, Thymus: 7.84 μg equivalents/g
  Radioactivity concentration, Thyroid: 18.9 μg equivalents/g
  Radioactivity concentration, Whole Brain: 3.08 μg equivalents/g
By 168 HPD, single dose
  Decline of radioactivity from peak concentration, brown adipose: approximately 5 fold
  Decline of radioactivity from peak concentration, subcutaneous adipose: ~2 fold
  Decline of radioactivity from peak concentration, visceral adipose: ~3 fold
Seven days after single dose
  Average concentration in choroid plexus, pineal gland, pituitary gland versus non-circumventricular CNS tissues: approximately 4 fold
Single dose
  Radioactivity in urine within the urinary bladder: no detection of radioactivity
  Time of highest blood concentration: 8 HPD
  Time of highest peak concentration, bladder wall: 8 HPD
  Time of highest peak concentration, brown adipose: 12 HPD
  Time of highest peak concentration, cecum: 12 HPD
  Time of highest peak concentration, choroid plexus: 12 HPD
  Time of highest peak concentration, epididymis: 12 HPD
  Time of highest peak concentration, esophagus: 8 HPD
  Time of highest peak concentration, gastric mucosa: 8 HPD
  Time of highest peak concentration, large intestines: 12 HPD
  Time of highest peak concentration, pineal gland: 48 HPD
  Time of highest peak concentration, pituitary gland: 18 HPD
  Time of highest peak concentration, preputial gland: 12 HPD
  Time of highest peak concentration, prostate: 24 HPD
  Time of highest peak concentration, small intestines: 8 HPD
  Time of highest peak concentration, stomach: 12 HPD
  Time of highest peak concentration, subcutaneous adipose: 12 HPD
  Time of highest peak concentration, testis: 18 HPD
  Time of highest peak concentration, visceral adipose: 12 HPD
  Time of peak levels, non-circumventricular CNS tissue: 168 HPD
Throughout the time course, single dose
  Concentration in choroid plexus, pineal gland, pituitary gland versus non-circumventricular CNS tissues: approximately 4 fold
